Test results as given in patent US5792765A, “Substituted oxazolidinones” (Bayer Aktiengesellschaft, priority 1996, dated 1998).
Converted amounts (≈) assume the structure as drawn. Read-outs that look alike come from different tables or passages of the source.

Columns and labels:
Format in all cases: cell-based
[1] = system: E. coli Neumann; experiment: MIC by serial dilution on Iso-Sensitest Agar; settings: Escherichia coli
Method: (§1) The minimum inhibitory concentrations (MIC) were determined by serial dilution methods on Iso-Sensitest Agar (Oxoid). For each test substance, a number of agar plates were prepared which, with an in each case doubled dilution, contained decreasing concentrations of the active compound. The agar plates were inoculated with the multipoint inoculator (Denley). For inoculation, overnight cultures of the caustive organisms were used which had previously been diluted such that each inoculation point contained about 10^4 colony-forming particles. The inoculated agar plates were incubated at 37° C., and the microorganism growth was read off after about 20 hours. The MIC value (μg/ml) indicates the lowest active compound concentration at which no growth could be detected using the naked eye.

[2] = system: Klebs. 57 USA; experiment: MIC by serial dilution on Iso-Sensitest Agar
Method: as §1

[3] = system: Psdm. Bonn; experiment: MIC by serial dilution on Iso-Sensitest Agar
Method: as §1

[4] = system: Staph. 25701; experiment: MIC by serial dilution on Iso-Sensitest Agar; settings: 37° C., about 20 hours
Method: as §1

[5] = system: Staph. 48N; experiment: MIC by serial dilution on Iso-Sensitest Agar; settings: 37° C., about 20 hours
Method: as §1

[6] = system: Staph. 9TV; experiment: MIC by serial dilution on Iso-Sensitest Agar; settings: 37° C., about 20 hours
Method: as §1

[7] = system: Mycobacterium smegmatis DSM 43061; experiment: MIC by broth microdilution, rapidly growing mycobacteria; settings: Mycolicibacterium smegmatis, DSM43061; strain DSM 43061; inoculum 2.20E + 04 /ml; 37° C., 2-4 days
Method: (§2) For rapidly growing mycobacteria the MIC determination was carried out following the broth microdilution method described by Swenson [cf. J. M. Swenson, C. Thomberry, U. A. Silcox, Rapidly growing mycobacteria. Testing of susceptibility to 34 antimicrobial agents by broth microdilution. Antimicrobial Agents and Chemotherapy Vol. 22, 186-192 (1982)]. A deviation from this was the brain-heart extract medium treated with 0.1% by volume of Tween 80.
(§3) The mycobacterial strains used were obtained from the DSM (German Collection of Microorganisms, Brunswick). They were incubated at 37° C. in a humid chamber.
(§4) The MIC values were read off after 2-4 days when the preparation-free controls had become turbid due to growth.

[8] = system: Mycoplasma pneumoniae strain PI 1428; experiment: MIC determination with Mycoplasma pneumoniae, serial microdilution; settings: PI1428, PPLO medium, anaerobic, 37° C., Alamar Blue
Method: MIC determination with Mycoplasma pneumoniae
Mycoplasma pneumoniae strain PI 1428 was cultured under anaerobic conditions in PPLO medium, to which 1% glucose, 2.5% yeast extract, 20% horse serum (donor horse serum) and 0.002% Phenol Red were added. MIC determinations were carried out following the serial microdilution method in liquid medium described by ter Laak and coworkers (E. A. ter Laak, A. Pijpers, J. H. Noordergraaf, E. Schoevers, J. H. M. Verheijden: Comparison of Methods for in vitro Testing of Susceptibility of Porcine Mycoplasma Species to Antimicrobial Agents; Antimicrobial Agents and Chemotherapy, Vol. 35, 228-233 (1991)). At the time of the start of the colour change of the medium of the preparation-free control from red to yellow, 10% by volume of Alamar Blue was added. The incubation at 37° C. was continued for about 10 hours and the MIC defined as the value at which the medium having the smallest preparation concentration remained unchanged blue.

[9] = system: Staph. 133; experiment: MIC by serial dilution on Iso-Sensitest Agar; settings: 37° C., about 20 hours
Method: as §1

[10] = system: Mycobacterium smegmatis DSM 43078; experiment: MIC by broth microdilution, rapidly growing mycobacteria; settings: Mycolicibacterium smegmatis, DSM43078; strain DSM 43078; inoculum 4.20E + 04 /ml; 37° C., 2-4 days
Method: as §2, §3, §4

[11] = E. coli Neumann, 37° C., about 20 hours, read-out: MIC
[12] = Klebs. 57 USA, 37° C., about 20 hours, read-out: MIC
[13] = Psdm. Bonn, 37° C., about 20 hours, read-out: MIC

Compound	MIC [1, 11]	MIC [2, 12]	MIC [3, 13]	MIC [4]	MIC [5]	MIC [6]	MIC [7]	MIC [8]	MIC [9]	MIC [10]	MIC ([1]; 20 h)	MIC ([2]; 20 h)	MIC ([3]; 20 h)
CNC(=S)NC[C@H]1CN(c2ccc(-c3ccncc3)s2)C(=O)O1 [Example 12]	> 64 µg/mL	> 64 µg/mL	> 64 µg/mL	1 µg/mL (≈ 2.87 µM)	1 µg/mL (≈ 2.87 µM)	0.5 µg/mL (≈ 1.43 µM)	8 µg/mL	2 µg/mL (≈ 5.74 µM)					
CNC(=S)NC[C@H]1CN(c2ccc3c(c2)sc(=O)n3C)C(=O)O1 [Example 20]	64 µg/mL (≈ 182 µM)	> 64 µg/mL	> 64 µg/mL	0.25 µg/mL (≈ 0.709 µM)	0.25 µg/mL (≈ 0.709 µM)	≤ 0.125 µg/mL	0.25 µg/mL		0.25 µg/mL (≈ 0.709 µM)	0.25 µg/mL			
CNC(=S)NC[C@H]1CN(c2ccc3nc(SC)sc3c2)C(=O)O1 [Example 23]	> 64 µg/mL	> 64 µg/mL	> 64 µg/mL	0.5 µg/mL (≈ 1.36 µM)	0.5 µg/mL (≈ 1.36 µM)	0.25 µg/mL (≈ 0.678 µM)		4 µg/mL (≈ 10.9 µM)	0.25 µg/mL (≈ 0.678 µM)				
NNC(=O)c1ccncc1 [Isoniazide, reference compound]							4 µg/mL			2 µg/mL			
CC(=S)NC[C@H]1CN(c2ccc(-c3ccncc3)s2)C(=O)O1 [Example 13]	> 64 µg/mL	> 64 µg/mL	> 64 µg/mL	0.25 µg/mL (≈ 0.75 µM)		≤ 0.125 µg/mL	2 µg/mL	2 µg/mL (≈ 6 µM)	0.25 µg/mL (≈ 0.75 µM)	1 µg/mL			
CNC(=S)NC[C@H]1CN(c2ccc(-c3cccnc3)s2)C(=O)O1 [Example 14]	> 64 µg/mL	> 64 µg/mL	> 64 µg/mL	1 µg/mL (≈ 2.87 µM)	1 µg/mL (≈ 2.87 µM)	0.5 µg/mL (≈ 1.43 µM)	8 µg/mL	8 µg/mL (≈ 23 µM)	1 µg/mL (≈ 2.87 µM)	4 µg/mL			
CC(=S)NC[C@H]1CN(c2ccc(-c3cccnc3)s2)C(=O)O1 [Example 15]	> 64 µg/mL	> 64 µg/mL	> 64 µg/mL	0.25 µg/mL (≈ 0.75 µM)	0.5 µg/mL (≈ 1.5 µM)	≤ 0.125 µg/mL	1 µg/mL		0.25 µg/mL (≈ 0.75 µM)	0.5 µg/mL			
CC(=S)NC[C@H]1CN(c2ccc3c(c2)sc(=O)n3C)C(=O)O1 [Example 42]	64 µg/mL (≈ 190 µM)	64 µg/mL (≈ 190 µM)	> 64 µg/mL	> 0.125 µg/mL	> 0.125 µg/mL	≤ 0.125 µg/mL			< 0.125 µg/mL				
CC(=S)NC[C@H]1CN(c2cc3ccc(Cl)cc3s2)C(=O)O1 [Example 43]	> 64 µg/mL	> 64 µg/mL	> 64 µg/mL	0.5 µg/mL (≈ 1.47 µM)	0.5 µg/mL (≈ 1.47 µM)	0.5 µg/mL (≈ 1.47 µM)			0.5 µg/mL (≈ 1.47 µM)				
CCC(=S)NC[C@H]1CN(c2ccc3ccsc3c2)C(=O)O1 [Example 11]				0.25 µg/mL (≈ 0.78 µM)	0.5 µg/mL (≈ 1.56 µM)	0.25 µg/mL (≈ 0.78 µM)			0.5 µg/mL (≈ 1.56 µM)		> 64 µg/mL	> 64 µg/mL	> 64 µg/mL
CSc1nc2ccc(N3C[C@H](CNC(C)=S)OC3=O)cc2s1 [Example 26]	> 64 µg/mL	> 64 µg/mL	> 64 µg/mL	0.25 µg/mL (≈ 0.707 µM)	0.25 µg/mL (≈ 0.707 µM)	≤ 0.125 µg/mL			< 0.125 µg/mL				
